According to patent US9822082B2, “Diaminotriazine derivatives as herbicides” (BASF SE, priority 2014, dated 2017):

How the values were obtained:
Assay in all cases: pre-emergence greenhouse herbicidal test
Format in all cases: in vivo
[1] = test system: ABUTH (Abutilon theophrasti); conditions: pre-emergence method, application rate 0.500 kg/ha, scale from 0 to 100
Excerpt: (§1) The seeds of the test plants were sown separately for each species. For the pre-emergence treatment, the active ingredients, which had been suspended or emulsified in water, were applied directly after sowing by means of finely distributing nozzles. The containers were irrigated gently to promote germination and growth and subsequently covered with transparent plastic hoods until the plants had rooted. This cover caused uniform germination of the test plants, unless this had been impaired by the active ingredients. Depending on the species, the plants were kept at 10-25° C. or 20-35° C., respectively. The test period extended over 2 to 4 weeks. During this time, the plants were tended, and their response to the individual treatments was evaluated. Evaluation was carried out using a scale from 0 to 100. 100 means no emergence of the plants, or complete destruction of at least the aerial moieties, and 0 means no damage, or normal course of growth. A moderate herbicidal activity is given at values of at least 60, a good herbicidal activity is given at values of at least 70, and a very good herbicidal activity is given at values of at least 85. The plants used in the greenhouse experiments were of the following species: [table]

[2] = test system: AMARE (Amaranthus retroflexus); conditions: pre-emergence method, scale from 0 to 100
Excerpt: as §1

[3] = test system: SETFA (Setaria faberi); conditions: pre-emergence method, scale from 0 to 100
Excerpt: as §1

[4] = test system: ECHCG (Echinocloa crus-galli); conditions: pre-emergence method, application rate 0.250 kg/ha, scale from 0 to 100
Excerpt: as §1

| SMILES | herbicidal activity against ABUTH [1] | herbicidal activity against AMARE ([2]; application rate 0.500 kg/ha) | herbicidal activity against SETFA ([3]; application rate 0.500 kg/ha) | herbicidal activity against AMARE ([2]; application rate 0.250 kg/ha) | herbicidal activity against ECHCG [4] | herbicidal activity against SETFA ([3]; application rate 0.250 kg/ha) |
| --- | --- | --- | --- | --- | --- | --- |
| COC1(c2nc(N)nc(Nc3c(F)c(F)cc(F)c3F)n2)CCC1 [Example 1, 6-(1-methoxycyclobutyl)-N4-(2,3,5,6-tetrafluorophenyl)-1,3,5-triazine-2,4-diamine] | very good herbicidal activity (a very good herbicidal activity is given at values of at least 85) | very good herbicidal activity (a very good herbicidal activity is given at values of at least 85) | very good herbicidal activity (a very good herbicidal activity is given at values of at least 85) | – | – | – |
| COC1(c2nc(N)nc(Nc3c(F)c(F)cc(F)c3F)n2)CCCC1 [Example 2, 6-(1-methoxycyclopentyl)-N2-(2,3,5,6-tetrafluorophenyl)-1,3,5-triazine-2,4-diamine] | very good herbicidal activity (a very good herbicidal activity is given at values of at least 85) | very good herbicidal activity (a very good herbicidal activity is given at values of at least 85) | very good herbicidal activity (a very good herbicidal activity is given at values of at least 85) | – | – | – |
| COC1(c2nc(N)nc(Nc3c(F)c(F)cc(F)c3F)n2)CCCCC1 [Example 3, 6-(1-methoxycyclohexyl)-N2-(2,3,5,6-tetrafluorophenyl)-1,3,5-triazine-2,4-diamine] | – | – | – | very good herbicidal activity (a very good herbicidal activity is given at values of at least 85) | very good herbicidal activity (a very good herbicidal activity is given at values of at least 85) | very good herbicidal activity (a very good herbicidal activity is given at values of at least 85) |
